The results in this text go back to US7491819B1 (priority 2004, dated 2009).

For this experiment, the target named is T1, HIV-integrase (Human immunodeficiency virus type 1 group M subtype B, UniProt P12497).
T1 construct: Recombinant integrase (0.26 ng) was incubated with the beads
As to the kind of experiment: HIV-Integrase Inhibition Activity (SPA bead strand-transfer assay). In kind it is biochemical. The settings on record: Table 1; read-out: Activity (HIV-integrase inhibition, IC50 class). The method, then: HIV-Integrase Inhibition Activity. To evaluate in-vitro activity against HIV-integrase, 5 pmole of biotin labeled substrate DNA was bound to 100 μg of Streptavidin coated PVT SPA beads (Amersham Pharmacia Biotech). Recombinant integrase (0.26 ng) was incubated with the beads for 90 min at 37° C. Unbound enzyme was removed by washing the complex followed by addition of inhibitors and 0.1 fmol of P33 labeled target DNA. The reaction was stopped by adding EDTA to a final concentration of 10 mM. Samples were counted in TopCountNXT (Packard) and the CPM was used as a measure of integration. The reaction condition was as described in A. Engelman and R. Craigie, J. Virol 69, 5908-5911 (1995). The sequences of substrate and target DNA were described in Nucleic Acid Research 22, 1121-1122 (1994).
For the molecule `Cc1cc(CNC(=O)c2nc3n(c(=O)c2O)CCOC3(C)C)ccc1F` [Example 20, Pyrimido[2,1-c][1,4]oxazine-2-carboxamide, N-[(4-fluoro-3-methylphenyl)methyl]-4,6,7,9-tetrahydro-3-hydroxy-9,9-dimethyl-4-oxo-], the IC50 (usually the concentration needed to halve the response being measured) fell in the range of 2 to 100 nM.

Take `CCCn1cc(-c2ccccc2CNC(=O)c2nc3n(c(=O)c2O)CCOC3(C)C)cn1` [Example 158, Pyrimido[2,1-c][1,4]oxazine-2-carboxamide, 4,6,7,9-tetrahydro-3-hydroxy-9,9-dimethyl-4-oxo-N-[[2-(1-propyl-1H-pyrazol-4-yl)phenyl]methyl]-]: the IC50 is 2 to 100 nM.

For the molecule `CN(C)C[C@H]1CCC(=O)N1c1cc(F)ccc1CNC(=O)c1nc2n(c(=O)c1O)CCOC2(C)C` [Example 131, (R)—N-(2-(2-((Dimethylamino)methyl)-5-oxopyrrolidin-1-yl)-4-fluorobenzyl)-3-hydroxy-9,9-dimethyl-4-oxo-4,6,7,9-tetrahydropyrimido[2,1-c][1,4]oxazine-2-carboxamide], the IC50 lay within 100 to 1000 nM.

For the molecule `CC1(C)OCCn2c1nc(C(=O)NCc1ccc(F)cc1-c1cc(Br)no1)c(O)c2=O` [Example 212, Pyrimido[2,1-c][1,4]oxazine-2-carboxamide, N-[[2-(3-bromo-5-isoxazolyl)-4-fluorophenyl]methyl]-4,6,7,9-tetrahydro-3-hydroxy-9,9-dimethyl-4-oxo-], the half-inhibitory concentration (IC50) lay in the range of 2 to 100 nM.

For the molecule `CC1(C)OCCn2c1nc(C(=O)NCc1ccc(F)cc1N)c(O)c2=O` [Example 134, Pyrimido[2,1-c][1,4]oxazine-2-carboxamide, N-[(2-amino-4-fluorophenyl)methyl]-4,6,7,9-tetrahydro-3-hydroxy-9,9-dimethyl-4-oxo-], the IC50 was 2 to 100 nM.

With `CCC1(CC)OCCn2c1nc(C(=O)NCc1ccc(F)cc1C(=O)NC)c(O)c2=O` [Example 120, Pyrimido[2,1-c][1,4]oxazine-2-carboxamide, 9,9-diethyl-N-[[4-fluoro-2-[(methylamino)carbonyl]phenyl]methyl]-4,6,7,9-tetrahydro-3-hydroxy-4-oxo-], the IC50 was in the range of 2 to 100 nM.

As for `CC1(C)OCCn2c1nc(C(=O)NCc1ccc(F)cc1C(=O)NCCO)c(O)c2=O` [Example 51, Pyrimido[2,1-c][1,4]oxazine-2-carboxamide, N-[[4-fluoro-2-[[(2-hydroxyethyl)amino]carbonyl]phenyl]methyl]-4,6,7,9-tetrahydro-3-hydroxy-9,9-dimethyl-4-oxo-], the IC50 was in the range of 2 to 100 nM.

For the molecule `CN(C)C(=O)c1cccc(-c2ccccc2CNC(=O)c2nc3n(c(=O)c2O)CCOC3(C)C)c1` [Example 171], the IC50 was in the range of 2 to 100 nM.

Regarding `CC(=O)N1CCN(C(=O)c2ncn(-c3cc(F)ccc3CNC(=O)c3nc4n(c(=O)c3O)CCOC4(C)C)n2)CC1` [Example 66, Pyrimido[2,1-c][1,4]oxazine-2-carboxamide, N-[[2-[3-[(4-acetyl-1-piperazinyl)carbonyl]-1H-1,2,4-triazol-1-yl]-4-fluorophenyl]methyl]-4,6,7,9-tetrahydro-3-hydroxy-9,9-dimethyl-4-oxo-], the IC50 was in the range of 2 to 100 nM.

For the molecule `C/C(N)=C/C(=O)c1cc(F)ccc1CNC(=O)c1nc2n(c(=O)c1O)CCOC2(C)C` [Example 211, Pyrimido[2,1-c][1,4]oxazine-2-carboxamide, N-[[2-[(2Z)-3-amino-1-oxo-2-butenyl]-4-fluorophenyl]methyl]-4,6,7,9-tetrahydro-3-hydroxy-9,9-dimethyl-4-oxo-], the IC50 was in the range of 2 to 100 nM.

As to `CSCCC1OCCn2c1nc(C(=O)NCc1ccc(F)cc1)c(O)c2=O` (stereo not shown) [Example 208, Pyrimido[2,1-c][1,4]oxazine-2-carboxamide, N-[(4-fluorophenyl)methyl]-4,6,7,9-tetrahydro-3-hydroxy-9-[2-(methylthio)ethyl]-4-oxo-], the IC50 was in the range of 2 to 100 nM.

Take `Cc1ncn(-c2cc(F)ccc2CNC(=O)c2nc3n(c(=O)c2O)CCOC3(C)C)n1` [Example 81, Pyrimido[2,1-c][1,4]oxazine-2-carboxamide, N-[[4-fluoro-2-(3-methyl-1H-1,2,4-triazol-1-yl)phenyl]methyl]-4,6,7,9-tetrahydro-3-hydroxy-9,9-dimethyl-4-oxo-]: the IC50 lay in the range of 2 to 100 nM.

For the molecule `CC1(C)OCCn2c1nc(C(=O)NCc1ccc3c(c1)OCO3)c(O)c2=O` [Example 218, Pyrimido[2,1-c][1,4]oxazine-2-carboxamide, N-(1,3-benzodioxol-5-ylmethyl)-4,6,7,9-tetrahydro-3-hydroxy-9,9-dimethyl-4-oxo-], the IC50 is 2 to 100 nM.

For the molecule `CC1(C)OCCn2c1nc(C(=O)NCCCc1ccc(Cl)c(Cl)c1)c(O)c2=O` [Example 25, Pyrimido[2,1-c][1,4]oxazine-2-carboxamide, N-[3-(3,4-dichlorophenyl)propyl]-4,6,7,9-tetrahydro-3-hydroxy-9,9-dimethyl-4-oxo-], the IC50 fell in the range of 100 to 1000 nM.

`CC(=O)N(C)c1cc(F)ccc1CNC(=O)c1nc2n(c(=O)c1O)CCOC2(C)C` [Example 136, Pyrimido[2,1-c][1,4]oxazine-2-carboxamide, N-[[2-(acetylmethylamino)-4-fluorophenyl]methyl]-4,6,7,9-tetrahydro-3-hydroxy-9,9-dimethyl-4-oxo-]: the IC50 is 2 to 100 nM.

`CC1(C)OCCCn2c1nc(C(=O)NCc1ccc(F)cc1N1CCC1=O)c(O)c2=O` [Example 280, 6H-Pyrimido[2,1-c][1,4]oxazepine-2-carboxamide, N-[[4-fluoro-2-(2-oxo-1-azetidinyl)phenyl]methyl]-4,7,8,10-tetrahydro-3-hydroxy-10,10-dimethyl-4-oxo-]: the IC50 lay in the range of 2 to 100 nM.

In the case of `CC1(C)OCCn2c1nc(C(=O)NCc1ccc(F)cc1C(=O)O)c(O)c2=O` [Example 48, Benzoic acid, 5-fluoro-2-[[[(4,6,7,9-tetrahydro-3-hydroxy-9,9-dimethyl-4-oxopyrimido[2,1-c][1,4]oxazin-2-yl)carbonyl]amino]methyl]-], the IC50 lay within 2 to 100 nM.

Regarding `CC1(C)OCCn2c1nc(C(=O)NCc1ccc(F)cc1-c1cccc(=O)[nH]1)c(O)c2=O` [Example 80, Pyrimido[2,1-c][1,4]oxazine-2-carboxamide, N-[[2-(1,6-dihydro-6-oxo-2-pyridinyl)-4-fluorophenyl]methyl]-4,6,7,9-tetrahydro-3-hydroxy-9,9-dimethyl-4-oxo-], the IC50 lay within 2 to 100 nM.

For `CCC1OCCn2c1nc(C(=O)NCc1ccc(F)cc1)c(O)c2=O` (stereo not shown) [Example 10, Pyrimido[2,1-c][1,4]oxazine-2-carboxamide, 9-ethyl-N-[(4-fluorophenyl)methyl]-4,6,7,9-tetrahydro-3-hydroxy-4-oxo-], the IC50 is 2 to 100 nM.

On to `CC1(C)OCCn2c1nc(C(=O)NCc1cccc(C3(C(F)(F)F)N=N3)c1)c(O)c2=O` [Example 105, Pyrimido[2,1-c][1,4]oxazine-2-carboxamide, 4,6,7,9-tetrahydro-3-hydroxy-9,9-dimethyl-4-oxo-N-[[3-[3-(trifluoromethyl)-3H-diazirin-3-yl]-phenyl]methyl]-], for which the IC50 was in the range of 2 to 100 nM.

Take `COc1ccc(-c2ccccc2CNC(=O)c2nc3n(c(=O)c2O)CCOC3(C)C)c(OC)n1` [Example 154, Pyrimido[2,1-c][1,4]oxazine-2-carboxamide, N-[[2-(2,6-dimethoxy-3-pyridinyl)phenyl]methyl]-4,6,7,9-tetrahydro-3-hydroxy-9,9-dimethyl-4-oxo-]: the IC50 lay within 2 to 100 nM.

In the case of `CC1(C)OCCn2c1nc(C(=O)NCc1ccc(N)cc1)c(O)c2=O` [Example 256, Pyrimido[2,1-c][1,4]oxazine-2-carboxamide, N-[(4-aminophenyl)methyl]-4,6,7,9-tetrahydro-3-hydroxy-9,9-dimethyl-4-oxo-], the IC50 lay within 100 to 1000 nM.

Consider `Cc1ccc(C)c(CNC(=O)c2nc3n(c(=O)c2O)CCOC3(C)C)c1` [Example 269, Pyrimido[2,1-c][1,4]oxazine-2-carboxamide, N-[(2,5-dimethylphenyl)methyl]-4,6,7,9-tetrahydro-3-hydroxy-9,9-dimethyl-4-oxo-], for which the IC50 was 2 to 100 nM.

Take `CC1(C)OCCn2c1nc(C(=O)NCc1ccccc1O)c(O)c2=O` [Example 258, Pyrimido[2,1-c][1,4]oxazine-2-carboxamide, 4,6,7,9-tetrahydro-3-hydroxy-N-[(2-hydroxyphenyl)methyl]-9,9-dimethyl-4-oxo-]: the IC50 is 2 to 100 nM.

Turning to `CNC(=O)c1ccc(-c2ccccc2CNC(=O)c2nc3n(c(=O)c2O)CCOC3(C)C)cc1` [Example 175, Pyrimido[2,1-c][1,4]oxazine-2-carboxamide, 4,6,7,9-tetrahydro-3-hydroxy-9,9-dimethyl-N-[[4′-[(methylamino)carbonyl][1,1′-biphenyl]-2-yl]methyl]-4-oxo-], the IC50 fell in the range of 2 to 100 nM.

In the case of `CCOP(=O)(O)c1cc(F)ccc1CNC(=O)c1nc2n(c(=O)c1O)CCOC2(C)C` [Example 282, Phosphonic acid, [5-fluoro-2-[[[(4,6,7,9-tetrahydro-3-hydroxy-9,9-dimethyl-4-oxopyrimido[2,1-c][1,4]oxazin-2-yl)carbonyl]amino]methyl]phenyl]-, monoethyl ester], the IC50 is 2 to 100 nM.

Consider `CC1(C)OCCn2c1nc(C(=O)NCc1ccc(O)cc1)c(O)c2=O` [Example 259, Pyrimido[2,1-c][1,4]oxazine-2-carboxamide, 4,6,7,9-tetrahydro-3-hydroxy-N-[(4-hydroxyphenyl)methyl]-9,9-dimethyl-4-oxo-], for which the IC50 fell in the range of 2 to 100 nM.

`CCC1OCCn2c1nc(C(=O)NCc1ccc(Cl)c(Cl)c1)c(O)c2=O` (stereo not shown) [Example 12, Pyrimido[2,1-c][1,4]oxazine-2-carboxamide, N-[(3,4-dichlorophenyl)methyl]-9-ethyl-4,6,7,9-tetrahydro-3-hydroxy-4-oxo-]: the IC50 lay in the range of 2 to 100 nM.
